In patent US6696476B2, “Pyranoindazoles and their use for the treatment of glaucoma” (Alcon, Inc., priority 2001, dated 2004):
Counter-ions that a name gives are not always drawn. Like-named read-outs stand apart in the source and are kept apart here.

Tests used:
5-HT2A Receptor [1] = target: T1, 5-HT2A Receptor (Rattus norvegicus, UniProt P14842); assay: 5-HT2 Receptor Binding Assay ([125I]DOI competition); parameters: species or system rat or human; conditions: 5-HT2A receptor binding; [125I]DOI displacement, cerebral cortex homogenates
T1 sequence (P14842 whole entry): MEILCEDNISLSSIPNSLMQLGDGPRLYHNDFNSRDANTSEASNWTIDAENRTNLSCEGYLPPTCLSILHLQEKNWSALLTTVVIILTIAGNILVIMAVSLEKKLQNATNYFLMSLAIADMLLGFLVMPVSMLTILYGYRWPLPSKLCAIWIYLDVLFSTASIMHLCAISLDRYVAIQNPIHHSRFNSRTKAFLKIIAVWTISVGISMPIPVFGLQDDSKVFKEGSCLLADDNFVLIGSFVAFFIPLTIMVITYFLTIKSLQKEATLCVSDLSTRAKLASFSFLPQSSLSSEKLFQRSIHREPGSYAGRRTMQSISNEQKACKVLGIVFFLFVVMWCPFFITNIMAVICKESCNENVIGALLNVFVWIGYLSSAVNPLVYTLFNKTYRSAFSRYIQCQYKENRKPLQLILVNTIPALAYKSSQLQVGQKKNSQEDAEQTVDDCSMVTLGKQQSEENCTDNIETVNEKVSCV
Description: Aliquots of post mortem rat or human cerebral cortex homogenates (400 μL) dispersed in 50 mM Tris HCl buffer (pH 7.4) are incubated with [^125I]DOI (80 pM final) in the absence or presence of methiothepin (10 μM final) to define total and non-specific binding, respectively, in a total volume of 0.5 mL. The assay mixture is incubated for 1 hour at 23° C. in polypropylene tubes and the assays terminated by rapid vacuum filtration over Whatman GF/B glass fiber filters previously soaked in 0.3% polyethyleneimine using ice-cold buffer. Test compounds (at different concentrations) are substituted for methiothepin. Filter-bound radioactivity is determined by scintillation spectrometry on a beta counter. The data are analyzed using a non-linear, iterative curve-fitting computer program [Trends Pharmacol. Sci., 16, 413 (1995)] to determine the compound affinity parameter. The concentration of the compound needed to inhibit the [^125I]DOI binding by 50% of the maximum is termed the IC50 or Ki value.

5-HT2A Receptor [2] = target: T1, 5-HT2A Receptor; assay: 5-HT2 Functional Assay: [Ca2+]i Mobilization (FLIPR, A7r5 cells); assay type: cell-based; parameters: endogenous in cells; host or cells: A7r5 rat vascular smooth muscle cells; conditions: for EC50: [Ca2+]i mobilization, A7r5 rat vascular smooth muscle cells; for Emax: read-out: Efficacy (Emax, %)
Description: The receptor-mediated mobilization on intracellular calcium ([Ca^2+]i) was studied using the Fluorescence Imaging Plate Reader (FLIPR) instrument. Rat vascular smooth muscle cells, A7r5, were grown in a normal media of DMEM/10% FBS and 10 μg/mL gentamycin. Confluent cell monolayers were trypsinized, pelleted, and re-suspended in normal media. Cells were seeded in a 50 μL volume at a density of 20,000 cells/well in a black wall, 96-well tissue culture plate and grown for 2 days.
On the day of the experiment, one vial of FLIPR Calcium Assay Kit dye was re-suspended in 50 mL of a FLIPR buffer consisting of Hank's Balanced Salt Solution (HBSS), 20 mM HEPES, and 2.5 mM probenecid, pH 7.4. Cells were loaded with the calcium-sensitive dye by addition of an equal volume (50 μL) to each well of the 96-well plate and incubated with dye for 1 h at 23° C.
Compounds were diluted 1:50 in 20% DMSO/20% Ethanol. For “hit” screening, compounds were further diluted 1:10 in FLIPR buffer and tested at a final concentration of 10 μM.
The compound plate and cell plate were placed in the FLIPR instrument. At the beginning of an experimental run, a signal test was performed to check the basal fluorescence signal from the dye-loaded cells and the uniformity of the signal across the plate. The basal fluorescence was adjusted between 8000-12000 counts by modifying the exposure time, the camera F-stop, or the laser power. Instrument settings for a typical assay were the following: laser power 0.3-0.6 W, camera F-stop F/2, and exposure time 0.4 sec. An aliquot (25 μL) of the test compound was added to the existing 100 μL dye-loaded cells at a dispensing speed of 50 μL/sec. Fluorescence data were collected in real-time at 1.0 sec intervals for the first 60 secs and at 6.0 sec intervals for an additional 120 secs.

intraocular pressure = assay: IOP Response in Conscious Cynomolgus Monkeys; assay type: in vivo
IOP [3] = conditions: rabbits; cited from earlier work
IOP [4] = conditions: monkey; attributed to α1A receptor activity; cited from earlier work
[5] = percentage of a maximum 5-HT-induced response, A7r5 cells
[6] = 3 hours after dose, dose 300 μg
[7] = 6 hours after dose, dose 300 μg

| Compound | IC50 (5-HT2A Receptor [1]) [nM] | EC50 (5-HT2A Receptor [2]) [nM] | Emax (5-HT2A Receptor [2]; [5]) [%] | melting point [°C] | other results |
| --- | --- | --- | --- | --- | --- |
| C[C@H](N)Cn1ncc2ccc3c(c21)C[C@@H](OCC(=O)OC(C)(C)C)CO3 [Example 16, [(R)-1-((S)-2-Amino-propyl)-1,7,8,9-tetrahydro-pyrano[2,3-g]indazol-8-yloxy]acetic Acid Tert-butyl Ester Dihydrochloride] | 1.94 | 424 | 73 |  |  |
| C[C@H](N)Cn1ncc2ccc3c(c21)C=CCO3 [Example 9, (S)-1-Methyl-2-(7H-pyrano[2,3-g]indazol-1-yl)-ethylamine] | 0.274 | 41.4 | 91 |  |  |
| C[C@H](N)Cn1ncc2ccc3c(c21)[C@H](O)[C@H](O)CO3 (relative stereo) [Example 7, (8R*,9S*)-1-((S)-2-Amino-propyl)-1,7,8,9-tetrahydro-pyrano[2,3-g]indazole-8,9-diol] | 3.73 | 194 | 85 | 115 to 117 |  |
| C[C@H](N)Cn1ncc2ccc3c(c21)C[C@@H](O)CO3 [Example 4, (R)-1-((S)-2-Aminopropyl)-1,7,8,9-tetrahydro-pyrano[2,3-g]indazol-8-ol] | 2.25 | 65.3 | 92 | 126 to 128 | Percent IOP Reduction ± SEM (intraocular pressure; 1 hour after dose, dose 300 μg): 7.68 ± 2.91%; Percent IOP Reduction ± SEM (intraocular pressure; [6]): 25.8 ± 3.53%; Percent IOP Reduction ± SEM (intraocular pressure; [7]): 30.2 ± 4.48% |
| COC1c2c(ccc3cnn(C[C@H](C)N)c23)OCC1O (stereo partly drawn) |  |  |  | 105 to 108 |  |
| NCCc1c[nH]c2ccc(O)cc12 [Example 5-HT, 5-Hyroxytryptamine, reference compound] |  |  |  |  | Efficacy (Emax, %) (5-HT2A Receptor [2]; [5]): 101% |
| C[C@H](N)Cn1ncc2ccc3c(c21)CCCO3.Cl.Cl [Example 8, (S)-2-(8,9-Dihydro-7H-pyrano[2,3-g]indazol-1-yl)-1-methyl-ethylamine Dihydrochloride] | 0.686 | 90 | 85 | 95 to 98 |  |
| C[C@@H](N)Cn1ncc2ccc3c(c21)CC(O)CO3.Cl (stereo partly drawn) |  |  |  | 82 to 86 |  |
| C[C@H](N)Cn1ncc2ccc3c(c21)C[C@@H](N)CO3.Cl.Cl.Cl [Example 6, (R)-1-((S)-2-Amino-propyl)-1,7,8,9-tetrahydro-pyrano[2,3-g]indazol-8-ylamine Trihydrochloride] | 6.56 | 175 | 87 | > 300 |  |
| C[C@H](N)Cn1ncc2ccc3c(c21)CC(O)CO3 (stereo partly drawn) [Example 3, 1-((S)-2-Aminopropyl)-1,7,8,9-tetrahydro-pyrano[2,3-g]indazol-8-ol] | 2.19 | 145 | 85 | 46 to 51 |  |
| C[C@H](N)Cn1ncc2ccc3c(c21)C(N)C(O)CO3 (stereo partly drawn) |  |  |  | 84 to 88 |  |
| C[C@H](N)Cn1ncc2ccc3c(c21)C[C@@H](OCC(N)=O)CO3 [Example 15, 2-[(R)-1-((S)-2-Aminopropyl)-1,7,8,9-tetrahydro-pyrano[2,3-g]indazol-8-yloxy]-acetamide] | 2.87 | 178 | 95 |  |  |
| C[C@H](N)Cc1n[nH]c2ccc3c(c12)CCCO3 [Example 17, (S)-1-Methyl-2-(3,7,8,9-tetrahydro-pyrano[3,2-e]indazol-1-yl)-ethylamine] | 0.79 | 154 | 88 |  |  |
| CCCN(CCC)C1CCc2cccc(O)c2C1 (stereo not drawn) [Example 8-OH-DPAT, 8-hydroxydipropylaminotetralin] |  |  |  |  | effect on IOP (IOP [3]): reduces IOP |
| COc1ccccc1N1CCN(CCCNc2c(C)c(=O)n(C)c(=O)n2C)CC1 [5-methylurapidil] |  |  |  |  | effect on IOP (IOP [4]): lowers IOP |
| C[C@H](N)Cc1n[nH]c2ccc3c(c12)CCCO3 (as salt: hydrochloride) [Example 17, (S)-1-Methyl-2-(3,7,8,9-tetrahydro-pyrano[3,2-e]indazol-1-yl)-ethylamine] |  |  |  | 235 to 240 |  |
| CC(=O)NCCO[C@H]1COc2ccc3cnn(C[C@H](C)N)c3c2C1 [Example 14, N-[2-[(R)-1-((S)-2-Aminopropyl)-1,7,8,9-tetrahydropyrano[2,3-g]indazol-8-yloxy]-ethyl]acetamide] | 5.34 | 202 | 86 | 165 to 166 |  |
| C[C@H](N)Cn1ncc2ccc3c(c21)C[C@@H](OCCO)CO3.Cl.Cl [Example 13, 2-[(R)-1-((S)-2-Aminopropyl)-1,7,8,9-tetrahydro-pyrano[2,3-g]indazol-8-yloxy]-ethanol Dihydrochloride] | 3.38 | 121 | 87 | > 100 | Percent IOP Reduction ± SEM (intraocular pressure; 1 hour after dose, dose 300 μg): 8.3 ± 2.64%; Percent IOP Reduction ± SEM (intraocular pressure; [6]): 21.4 ± 4.18%; Percent IOP Reduction ± SEM (intraocular pressure; [7]): 28.4 ± 3.36% |
| CC(N)Cn1ncc2ccc3c(c21)CC(O)CO3 (stereo not drawn) |  |  |  | 124 to 125 |  |
| COc1cc(C[C@@H](C)N)c(OC)cc1I [(R)-DOI, reference compound] |  |  |  |  | Percent IOP Reduction ± SEM (intraocular pressure; 1 hour after dose, dose 100 μg): 11.0 ± 4.98%; Percent IOP Reduction ± SEM (intraocular pressure; 3 hours after dose, dose 100 μg): 25.3 ± 2.97%; Percent IOP Reduction ± SEM (intraocular pressure; 6 hours after dose, dose 100 μg): 34.4 ± 4.98% |
| C[C@H](N)Cn1ncc2ccc3c(c21)C[C@H](O)CO3 [Example 5, (S)-1-((S)-2-Aminopropyl)-1,7,8,9-tetrahydro-pyrano[2,3-g]indazol-8-ol] | 3.44 | 226 | 70 |  | Percent IOP Reduction ± SEM (intraocular pressure; 1 hour after dose, dose 300 μg): 7.9 ± 4.06%; Percent IOP Reduction ± SEM (intraocular pressure; [6]): 17.3 ± 3.87%; Percent IOP Reduction ± SEM (intraocular pressure; [7]): 25.1 ± 4.76% |
